According to patent US6489165B2, “Chondrocyte-like cells useful for tissue engineering and methods” (The Regents of the University of California, priority 1997, dated 2002):

Assays:
[1] = test system: Human neonatal foreskin fibroblasts (HFFs); test: Immunohistochemical detection of matrix proteins in micromass cultures; format: cell-based
Description: Human neonatal foreskin fibroblasts (HFFs) were cultured in high density micromasses (2.0×10^7 cells/ml in 10 μl) and treated with 40 mM lactic acid and 200 nM staurosporine for a period of 24 hours as previously described by Examples 1 and 2. After the initial culture period, the cells were maintained in chemically defined medium consisting of minimum essential medium supplemented with a 1× mixture of Insulin-Transferrin-Selenium (Life Technologies, Gibco BRL, Gaithersburg, Md.), 4.5 g/l glucose, 10 mM β-glycerophosphate, and antibiotics. Dermal fibroblasts isolated from donor tissue were similarly cultured. Additionally, dermal fibroblasts were seeded on three-dimensional polymer scaffolds composed of a non-woven polyglycolic acid (PGA) (Davis and Geck, Danbury, Conn.) mesh reinforced in a dilute solution of 100 kDa poly(L-lactic acid) (PLLA) (Polysciences, Warrington, Pa.).
(§1) The production of sulfated proteoglycans was assessed by staining with 1% Alcian blue dye (pH 1.0), while monoclonal antibodies to collagen types I (Rockland, Gilbertsville, Pa.) and II (CIICl, Developmental Studies Hybridoma Bank, Iowa City, Iowa), aggrecan (Chemicon, Temecula, Calif.), and cartilage link protein (9/30/8-A-4, DSHB) were used for immuno-histochemical detection employing the Histostain-Plus king (Zymed, South San Francisco, Calif.) with a DAB substrate for final visualization. The expression of type I collagen and transforming growth factor-β1 (TGF-β1) was detected by northern hybridization. Cell-polymer composites were analyzed by scanning electron microscopy and were embedded in glycol methacrylate, sectioned, and stained with hematoxylin and eosin.

Human dermal fibroblasts [2] = conditions: 20 mM lactate; cited from earlier work
Human dermal fibroblasts [3] = test: Cell morphology in high density micromass cultures by microscopy; format: cell-based
Description: (§2) Experiments were designed to examine the effects of functional hypoxia and high density culture conditions on the phenotype of dermal fibroblasts. Human dermal fibroblasts obtained from neonatal foreskin samples were cultured in high density micromass cultures. Briefly, a 10 μl drop of a cell solution at a concentration of 2.0×10^4-4.0×10^4 cells/μl was plated in a 24-well polystyrene tissue culture dish. The cultures were incubated for one hour at 37° C., 5% CO2 to allow the cells to adhere to the bottom of the wells and to enhance cell:cell interactions. Following incubation, the cells were flooded with 1 ml of medium (bringing the final concentration to 2.0×10^5 to 4.0×10^5 cells/ml) containing exogenous factors that promote differentiation along the chondrogenic pathway. Cultures were made functionally hypoxic by the addition of lactate (10-40 mM) to the culture medium. The cells were cultured for a period of 24 hours.
Human neonatal foreskin fibroblasts (HFFs) were cultured in high density micromasses (2.0×10^7 cells/ml in 10 μl) and treated with 40 mM lactic acid and 200 nM staurosporine for a period of 24 hours as previously described by Examples 1 and 2. […]

Human dermal fibroblasts [4] = test: Northern hybridization of total cellular RNA with DIG-labeled probes; format: cell-based
Description: Gene Expression. […] The expression of TGF-β1 was also examined in cells cultured under identical conditions. […] Human dermal fibroblasts were cultured in monolayer without or with 40 mM lactate or in micromass cultures without or with 40 mM lactate at a density of 3.0×10^5 cell/ml for 24 hours. Total cellular RNA extracted using the Ultraspec isolation system (Biotecx Laboratories, Inc., Houston, Tex.) and fractionated by formaldehyde-agarose gel electrophoresis was hybridized with DIG-labeled probes to human chondroitin sulfate proteoglycan (aggrecan) core protein and TGF-β1. An equal amount of RNA (5 μg) was loaded in each lane and 28s ribosomal RNA served as an internal control.
Human dermal fibroblasts were cultured in monolayer without or with 40 mM lactate or in micromass cultures without or with 40 mM lactate at a density of 2.0×10^5 cell/ml for 24 hours. Total cellular RNA extracted using the Ultraspec isolation system (Biotecx Laboratories, Inc., Houston, Tex.) and fractionated by formaldehyde-agarose gel electrophoresis was hybridized with a DIG-labeled probe to human type I collagen. An equal amount of RNA (5 μg) was loaded in each lane and 28s ribosomal RNA served as an internal control.
Human dermal fibroblasts were seeded in micromass cultures at a density of 2.0×10^5 cells/ml for 24 hours in the presence of 40 mM lactate and varying concentrations of the protein kinase C inhibitors, staurosporine (0, 50, 100, 150, and 200 nM in lanes 1-5, respectively). Total cellular RNA extracted using the Ultraspec isolation system (Biotecx Laboratories, Inc., Houston, Tex.) and fractionated by formaldehyde-agarose gel electrophoresis was hybridized with DIG-labeled probes to human chondroitin sulfate proteoglycan (aggrecan) core protein and type I collagen. An equal amount RNA (5 μg) was loaded in each lane and 28s ribosomal RNA served as an internal control.
as §1

Human dermal fibroblasts [5] = test: [35S]-sulfate incorporation (normalized to [3H]-thymidine) in micromass cultures; format: cell-based
Description: Thus, human dermal fibroblasts were seeded in monolayer or micromass cultures at a density of 2.0×10^5 cell/ml for 24 hours and left untreated or treated with 40 mM lactate to induce hypoxia. Cultures were labeled with [^3H]-thymidine at 2 μCi/ml and Na2^35SO4 at 5 μCi/ml 24 hours prior to harvest. Relative levels of [^35S]-sulfate uptake (ratio of [^35S]-sulfate to [^3H]-thymidine) were determined by liquid scintillation counting of soluble cell extracts using a dual label DPM counting program. […] Human dermal fibroblasts were seeded in high density micromass cultures at a density of 2.0×10^5 cell/ml, treated with lactate at varying concentrations (0-80 mM) for a 24 hour period, and labeled with [^35S]-sulfate.

Human dermal fibroblasts [6] = test: Alcian blue staining of sulfated proteoglycan in monolayer or micromass cultures; format: cell-based; conditions: high density micromass, 40 mM lactate, 24 hours, vs untreated and monolayer cultures, P<0.05
Description: as §2
Matrix Deposition. Treated micromass cultures synthesized highly negatively charged sulfated proteoglycan aggregates, as detected using histological and biochemical methods. […] The intensity of Alcian blue staining from guanidine-HCl extracts was measured using a microplate reader at a wavelength of 595 nm.
The expression of type I collagen and transforming growth factor-β1 (TGF-β1) was detected by northern hybridization.

[7] = test system: fibroblast micromass cultures; test: Cell viability by direct microscopic observation; format: cell-based, human; conditions: staurosporine alone without lactate priming, at otherwise effective doses
Text: Accordingly, practice of the invention includes treating the cells with the second agent so as to allow a PKA-dependent antagonistic pathway to predominate and to drive chondrogenic differentiation. Suitable chondrogenic differentiation agents include Bisindolylmaleimide I and calphostin C. PKA activators such as dibutyryl cAMP and adenylate cyclase activators (which results in cAMP production and PKA activity) like forskolin may also be effective. A preferred such agent is staurosporine (a protein kinase inhibitor to which PKC is most sensitive), preferably in a range of 150-200 nM.

[8] = whole mount micromass cultures, after three days
[9] = micromass 3.0×10^5 cell/ml, 40 mM lactate, 24 hours, vs untreated and monolayer
[10] = micromass 2.0×10^5 cell/ml, lactate 0-80 mM, 24 hours

CC(O)C(=O)O (centres unmarked) [lactate]
type I collagen immunostaining ([1]; micromass cultures): only on the periphery | aggrecan immunostaining [1, 8]: Minimal staining | cartilage link protein immunostaining [1, 8]: Minimal staining | hyaluronan synthesis (Human dermal fibroblasts [2]): increased | fibroblast outgrowth from the micromass cultures (Human dermal fibroblasts [3]; 40 mM lactate as compared to 20 mM lactate): less fibroblast outgrowth | TGF-β1 expression levels (Human dermal fibroblasts [4]; HFFs on PGA/PLLA discs, all groups): remained similar in all groups | expression of type I collagen (Human dermal fibroblasts [4]; HFFs on PGA/PLLA discs, treated vs untreated control): greater in untreated control cultures | type I collagen gene expression (Human dermal fibroblasts [4]; micromass 2.0×10^5 cell/ml, 40 mM lactate, 24 hours): noticeable decrease | TGF-β1 gene expression (Human dermal fibroblasts [4]; [9]): marked increase | aggrecan core protein gene expression (Human dermal fibroblasts [4]; [9]): marked increase | relative [35S]-sulfate incorporation (ratio to [3H]-thymidine) (Human dermal fibroblasts [5]; high density micromass, 40 mM lactate, 24 hours, vs corresponding cultures, P<0.05): Significantly greater levels | lactate concentration at which sulfate uptake peaks (Human dermal fibroblasts [5]; [10]): 20 to 40 mM | sulfate uptake versus lactate concentration (Human dermal fibroblasts [5]; [10]): dose-dependent increase | intensity of Alcian blue staining (sulfated proteoglycan content), 595 nm (Human dermal fibroblasts [6]): significantly greater degree of staining

CN[C@@H]1C[C@H]2O[C@@](C)([C@@H]1OC)n1c3ccccc3c3c4c(c5c6ccccc6n2c5c31)C(=O)NC4 [staurosporine]
visible effect in lactate-treated micromass cultures (Human dermal fibroblasts [3]; staurosporine about 5-20 nM): no visible effect | aggrecan core protein gene expression (Human dermal fibroblasts [4]; micromass, 40 mM lactate plus 150 nM staurosporine, 24 hours): notable increase | aggrecan core protein gene expression (Human dermal fibroblasts [4]; micromass, 40 mM lactate plus 200 nM staurosporine, 24 hours): notable increase | type I collagen gene expression (Human dermal fibroblasts [4]; micromass, 40 mM lactate plus staurosporine 50-200 nM (all supplemented cultures), 24 hours): marked decrease | sulfate incorporation (Human dermal fibroblasts [5]; staurosporine alone without lactate priming, at otherwise effective doses): decreased levels | cell viability [7]: deleterious effect
